# Tests used:
# [1] = Pharmacokinetics after single topical ocular dose 10 μg/eye (BL06029); type: in vivo, rabbit; settings: single dose 10 μg/eye (BL06029); for Cmax / Tmax: rabbit, topical or ocular, 10 ug
# [2] = Loss of Alexidine due to non-specific binding to glass vial at different pH; type: physicochemical; settings: 20 ppm, two weeks
# Protocol: Alexidine sample solutions (20 ppm) were prepared at different pHs and quantitative amount were stored in glass vial for two weeks. At the end of storage, the sample solution was removed and thoroughly rinsed with distilled water. The empty sample vials were then rinsed with 0.1 N HCl solution. The concentration of Alexidine in the acid solution was determined by HPLC assay and the amount recovered from glass wall was calculated in Table 1.
# [3] = Anterior ocular and systemic pharmacokinetics after repeated topical ocular administration (TID, 10 doses); type: in vivo, male New Zealand Composite rabbits; settings: for AUC(0-24) / DNAUC(0-24) / Cmax / Tmax: TID dosing (dose 10), 10 μg/eye; for Cmax / Tmax: topical or ocular, 10 ug
# Protocol: This study was to investigate anterior ocular and systemic pharmacokinetics of alexidine following repeated topical ocular administration (3 doses/day; 10 doses total) of a 100 ppm solution to male New Zealand Composite rabbits.
# This study was carried out using a non-crossover design and a total of 52 naïve male New Zealand Composite rabbits. Each animal (fed) received a topical ocular dose of alexidine at approximately 7 am, 12 noon and 5 pm on Day 1, Day 2 and Day 3. On the morning of Day 4, each animal received the final (10th) topical ocular dose. For each dose administration, animals received approximately 100 μL of a 100 ppm solution (10 μg dose) as a topical instillation into the conjunctival sac of each eye using a positive-displacement pipette.
# On Day 4, rabbits (n=4 per collection time) were euthanized and the eyes enucleated and dissected. Samples of blood (centrifuged to obtain plasma), tear, conjunctiva, cornea, and aqueous humor were obtained from both eyes of each animal. Samples were collected prior to administration of the final dose, and 5, 15, and 30 min and 1, 2, 4, 8, 24, 32, 48, 56, and 72 hr after dosing. Non-compartmental methods were used for pharmacokinetic analysis of concentration versus time data. Due to the destructive sampling regimen employed in this study average composite data were used in the pharmacokinetic analysis.
# Abbreviations used in this diagram are as follows. Cmax is defined as the maximum mean concentration attained after topical instillation (±SD). Tmax is the time that Cmax was observed.
# [4] = test system: acantamoeba cysts and trophazoites; settings: cited from earlier work
# Acanthamoeba keratitis = settings: case report, recurrence in corneal graft; cited from earlier work
# Aspergillus keratitis = settings: 0.02%; cited from earlier work
# Fusarium Keratomycosis = settings: 0.02% solution, rabbit model; cited from earlier work
# [5] = male, New Zealand Composite, rabbit, Conjunctiva
# [6] = male, New Zealand Composite, rabbit, Cornea
compound,measurement,setting,value
"CCCCC(CC)CNC(=N)NC(=N)NCCCCCCNC(=N)NC(=N)NCC(CC)CCCC (stereo not drawn) [Alexidine, 1,1′-hexamethylene-bis[5-(2-ethylhexyl)biguanide]]",levels in aqueous humor,[1]; Aq. Humor,No Quantifiable levels (<0.5 ng/mL)
same,AUC(0-24),[1]; Conjunctiva,5697 µg·min/g
same,DNAUC(0-24),[1]; Conjunctiva,570 (min · ug/g) ÷ ug
same,AUC(0-24),[1]; Cornea,557 µg·min/g
same,DNAUC(0-24),[1]; Cornea,55.7 (min · ug/g) ÷ ug
same,levels in plasma,[1]; Plasma,No Quantifiable levels (<0.5 ng/mL)
same,Cmax,[1]; Conjunctiva,6440 ng/g
same,Tmax,[1]; Conjunctiva,480 min
same,Cmax,[1]; Cornea,997 ng/g
same,Tmax,[1]; Cornea,15 min
same,% Adsorbed on Glass Vial,[2]; pH 3,1.0%
same,% Adsorbed on Glass Vial,[2]; pH 5,4.0%
same,% Adsorbed on Glass Vial,[2]; pH 7,7.5%
same,% Adsorbed on Glass Vial,[2]; pH 9,12.5%
same,% Adsorbed on Glass Vial,[2]; pH 11,23.5%
same,AUC(0-24),[3]; Conjunctiva,11461 µg·min/g
same,DNAUC(0-24),[3]; Conjunctiva,1146 (min · ug/g) ÷ ug
same,AUC(0-24),[3]; Cornea,2727 µg·min/g
same,DNAUC(0-24),[3]; Cornea,273 (min · ug/g) ÷ ug
same,mean concentrations in conjunctiva,[3]; at all times through the 72 hr after the final 10-μg dose,≥ 5100 ng/g
same,AUC(0-t),"[3]; male, New Zealand Composite, rabbit, conjunctiva, topical, repeated administration of a 10-μg dose, value used for AUC:MIC90 ratio, read-out: AUC(0-24)",191 µg·h/mL
same,Cmax,[3]; [5],15100 ± 4120 ng/g
same,Tmax,[3]; [5],5 min
same,Cmax,[3]; [6],3740 ± 1790 ng/g
same,Tmax,[3]; [6],30 min
same,tolerability,"[3]; repeated administration of a 100 ppm solution, topical ocular",well tolerated in all animals
same,minimum inhibitory concentration,[4],6.3 µg/mL
poly(hexamethylene biguanide) [PHMB],treatment of recurrences of Acanthamoeba keratitis,Acanthamoeba keratitis,successfully treated
same,effectiveness in experimental Aspergillus keratitis,Aspergillus keratitis,moderately effective
same,reducing fungal growth,Fusarium Keratomycosis,effective at reducing fungal growth

# Source: US20070140897A1, “PH STABLE BIGUANIDE COMPOSITION AND METHOD OF TREATMENT AND PREVENTION OF INFECTIONS” (priority 2005, published 2007)
